Source: patent publication US20240317708A1, “INHIBITORS OF TRANSGLUTAMINASES” (ZEDIRA GMBH, priority 2021, published 2024)

What was measured:
[1] = Log D shake flask method (octanol / PBS pH 7.4, HPLC); format: physicochemical; conditions: octanol/phosphate-buffered saline (PBS); octanol / PBS pH 7.4, shake flask
Protocol: In order to classify the inventive compounds according to their lipophilicity, Log D values (distribution coefficient) were determined by means of the well-established shake flask method, measuring the partition of a compound between an octanol and phosphate-buffered saline (PBS, pH 7.4) by HPLC.

[2] = target: T1, recombinant human transglutaminase 2 (Homo sapiens, UniProt P21980); experiment: Transglutaminase assay (dansylcadaverine incorporation into dimethylcasein, DCC-assay); format: biochemical; conditions: for IC50: recombinant human TG2 10 nM, dansylcadaverine/dimethylcasein, 37° C.
T1 construct: purchased Zedira T022
T1 sequence (P21980 1-687): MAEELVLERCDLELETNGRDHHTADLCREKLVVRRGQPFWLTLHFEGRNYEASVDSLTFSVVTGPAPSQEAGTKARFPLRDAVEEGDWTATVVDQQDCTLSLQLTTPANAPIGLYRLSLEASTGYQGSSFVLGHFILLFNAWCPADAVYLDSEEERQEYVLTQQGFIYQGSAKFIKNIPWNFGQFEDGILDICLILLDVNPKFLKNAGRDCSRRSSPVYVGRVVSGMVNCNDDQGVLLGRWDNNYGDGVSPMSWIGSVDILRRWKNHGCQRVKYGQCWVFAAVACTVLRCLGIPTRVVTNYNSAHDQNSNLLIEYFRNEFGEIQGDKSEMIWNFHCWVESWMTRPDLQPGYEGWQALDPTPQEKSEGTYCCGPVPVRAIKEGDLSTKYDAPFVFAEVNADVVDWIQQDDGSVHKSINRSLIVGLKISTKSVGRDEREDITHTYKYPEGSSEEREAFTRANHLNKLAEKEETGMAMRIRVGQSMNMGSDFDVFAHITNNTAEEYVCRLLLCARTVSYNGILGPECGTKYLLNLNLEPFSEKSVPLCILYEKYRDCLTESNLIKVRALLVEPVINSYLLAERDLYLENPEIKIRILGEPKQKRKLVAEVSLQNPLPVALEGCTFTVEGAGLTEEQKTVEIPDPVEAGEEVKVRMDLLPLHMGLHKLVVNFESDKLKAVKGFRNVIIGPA
In short: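 IC50 derived from fluorescence slope between 20 and 30 min (λex 330 nm, λem 500 nm, 37 °C), expressed relative to a 2% DMSO control. Reaction: 10 nM recombinant human TG2, 4 μM dimethylcasein, 16.7 μM dansylcadaverine, 10 mM CaCl2 and glutathione, pH 8.0.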

[3] = Caco-2 permeability assay (CacoReady kit); format: in vitro ADME; conditions: human
In short: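 Intestinal permeability modelled with kit-supplied Caco-2 barriers, run as the maker specifies; each compound reported as Papp.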

Structure (SMILES)	logD [1]	IC50 [2] [nM]	Papp [3] [×10⁻⁶ cm/s]	times less potent in comparison to compound III-83 ([2]; IC50 ratio vs III-83, Table 1)
Cc1cn2c(C(=O)N[C@@H](CC/C=C/C(=O)NC(C)C)C(=O)Nc3cccn(CC(=O)NC45CC(C4)C5)c3=O)csc2n1 [III-141, (S,E)-N7-(1-(2-(bicyclo[1.1.1]pentan-1-ylamino)-2-oxoethyl)-2-oxo-1,2-dihydropyridin-3-yl)-N1-isopropyl-6-(6-methylimidazo[2,1-b]thiazole-3-carboxamido)hept-2-enediamide]	< 1	250 to 1500	1 to 10	–
CCCCCNC(=O)/C=C/CC[C@H](NC(=O)c1cn2ccsc2n1)C(=O)Nc1cccn(CC(=O)NC23CC(C2)C3)c1=O [III-143, (S,E)-N7-(1-(2-(bicyclo[1.1.1]pentan-1-ylamino)-2-oxoethyl)-2-oxo-1,2-dihydropyridin-3-yl)-6-(imidazo[2,1-b]thiazole-6-carboxamido)-N1-pentylhept-2-enediamide]	1 to 3	250 to 1500	1 to 10	–
COC(=O)/C=C/CC[C@H](NC(=O)c1cnnn1C)C(=O)Nc1cccn(CC(=O)N[C@@H]2C[C@H]3CC[C@@H]2C3)c1=O [III-96, (S,E)-methyl 7-(1-(2-((1R,2R,4S)-bicyclo[2.2.1]heptan-2-ylamino)-2-oxoethyl)-2-oxo-1,2-dihydropyridin-3-ylamino)-6-(1-methyl-1H-1,2,3-triazole-5-carboxamido)-7-oxohept-2-enoate]	< 1	< 25	1 to 10	–
COC(=O)/C=C/CC[C@H](NC(=O)c1cc2c(Br)cccc2o1)C(=O)Nc1cccn(CC(=O)NC2C3CC4CC(C3)CC2C4)c1=O (stereo partly drawn) [III-4, (S,E)-methyl 6-(4-bromobenzofuran-2-carboxamido)-7-(1-(2-(2-adamantylamino)-2-oxoethyl)-2-oxo-1,2-dihydropyridin-3-ylamino)-7-oxohept-2-enoate]	3 to 5	< 25	1 to 10	–
COC(=O)/C=C/CC[C@H](NC(=O)c1oc2ccccc2c1C)C(=O)Nc1cccn(CC(=O)N[C@@H]2C[C@H]3CC[C@]2(C)C3(C)C)c1=O [III-68, (S,E)-methyl 6-(3-methylbenzofuran-2-carboxamido)-7-oxo-7-(2-oxo-1-(2-oxo-2-((1R,2R,4R)-1,7,7-trimethylbicyclo[2.2.1]heptan-2-ylamino)ethyl)-1,2-dihydropyridin-3-ylamino)hept-2-enoate]	3 to 5	< 25	1 to 10	–
COC(=O)/C=C/CC[C@H](NC(=O)c1csnn1)C(=O)Nc1cccn(CC(=O)NC23CC(C2)C3)c1=O [III-169, (S,E)-methyl 7-(1-(2-(bicyclo[1.1.1]pentan-1-ylamino)-2-oxoethyl)-2-oxo-1,2-dihydropyridin-3-ylamino)-7-oxo-6-(1,2,3-thiadiazole-4-carboxamido)hept-2-enoate]	< 1	25 to 250	< 1	–
O=C(/C=C/CC[C@H](NC(=O)c1cnc2ccc(OC(F)(F)F)cc2c1O)C(=O)Nc1cccn(CC(=O)NC23CC(C2)C3)c1=O)NC1CC1 [III-144, (S,E)-N7-(1-(2-(bicyclo[1.1.1]pentan-1-ylamino)-2-oxoethyl)-2-oxo-1,2-dihydropyridin-3-yl)-N1-cyclopropyl-6-(4-hydroxy-6-(trifluoromethoxy)quinoline-3-carboxamido)hept-2-enediamide]	3 to 5	250 to 1500	< 1	–
COC(=O)/C=C/CC[C@H](NC(=O)c1oc2ccccc2c1C)C(=O)Nc1cccn(CC(=O)NC2C3CCC2CC3)c1=O (stereo partly drawn) [III-65, (S,E)-methyl 7-(1-(2-(bicyclo[2.2.1]heptan-7-ylamino)-2-oxoethyl)-2-oxo-1,2-dihydropyridin-3-ylamino)-6-(3-methylbenzofuran-2-carboxamido)-7-oxohept-2-enoate]	3 to 5	< 25	1 to 10	–
COC(=O)/C=C/CC[C@H](NC(=O)c1cncn1C)C(=O)Nc1cccn(CC(=O)NC23CC4CC(C)(CC(C)(C4)C2)C3)c1=O [III-88, (S,E)-methyl 7-(1-(2-(3,5-dimethyladamantane)-2-oxoethyl)-2-oxo-1,2-dihydropyridin-3-ylamino)-6-(1-methyl-1H-imidazole-5-carboxamido)-7-oxohept-2-enoate]	1 to 3	< 25	< 1	–
COC(=O)/C=C/CC[C@H](NC(=O)c1oc2ccccc2c1C)C(=O)Nc1cccn(CC(=O)NCC23CC4CC(CC(C4)C2)C3)c1=O [III-56, (S,E)-methyl 7-(1-(2-(1-adamantylmethylamino)-2-oxoethyl)-2-oxo-1,2-dihydropyridin-3-ylamino)-6-(3-methylbenzofuran-2-carboxamido)-7-oxohept-2-enoate]	3 to 5	25 to 250	1 to 10	–
COC(=O)/C=C/CC[C@H](NC(=O)c1cccnc1)C(=O)Nc1cccn(CC(=O)NCCc2ccccc2)c1=O [Ref. 5, reference compound]	1 to 3	250 to 1500	< 1	more than 25 times
COC(=O)/C=C/CC[C@H](NC(=O)c1ncn(C)n1)C(=O)Nc1cccn(CC(=O)NC2C3CC4CC(C3)CC2C4)c1=O (stereo partly drawn) [III-105, (S,E)-methyl 7-(1-(2-(2-adamantylamino)-2-oxoethyl)-2-oxo-1,2-dihydropyridin-3-ylamino)-6-(1-methyl-1H-1,2,4-triazole-3-carboxamido)-7-oxohept-2-enoate]	1 to 3	25 to 250	1 to 10	–
COC(=O)/C=C/CC[C@H](NC(=O)c1nc2ccccc2[nH]1)C(=O)Nc1cccn(CC(=O)NC2C3CC4CC(C3)CC2C4)c1=O (stereo partly drawn) [III-11, (S,E)-methyl 6-(1H-benzo[d]imidazole-2-carboxamido)-7-(1-(2-(2-adamantylamino)-2-oxoethyl)-2-oxo-1,2-dihydropyridin-3-ylamino)-7-oxohept-2-enoate]	3 to 5	25 to 250	< 1	–
COC(=O)/C=C/CC[C@H](NC(=O)c1cccnc1)C(=O)Nc1cccn(CC(=O)NC2C3CC4CC(C3)CC2C4)c1=O (stereo partly drawn) [III-83, (S,E)-methyl 7-(1-(2-(2-adamantylamino)-2-oxoethyl)-2-oxo-1,2-dihydropyridin-3-ylamino)-6-(nicotinamido)-7-oxohept-2-enoate]	3 to 5	< 25	< 1	–
COC(=O)/C=C/CC[C@H](NC(=O)c1cnnn1C)C(=O)Nc1cccn(CC(=O)NC23CC4CC(C)(CC(C)(C4)C2)C3)c1=O [III-114, (S,E)-methyl 7-(1-(2-(3,5-dimethyladamantane-1-amino)-2-oxoethyl)-2-oxo-1,2-dihydropyridin-3-ylamino)-6-(1-methyl-1H-1,2,3-triazole-5-carboxamido)-7-oxohept-2-enoate]	1 to 3	< 25	< 1	–
COC(=O)/C=C/CC[C@H](NC(=O)c1coc(S(N)(=O)=O)c1)C(=O)Nc1cccn(CC(=O)NC2C3CC4CC2CC(NC(C)=O)(C4)C3)c1=O (stereo partly drawn) [III-164, (S,E)-methyl 7-(1-(2-(1-acetylamino-4-aminoadamantane)-2-oxoethyl)-2-oxo-1,2-dihydropyridin-3-ylamino)-7-oxo-6-(5-sulfamoylfuran-3-carboxamido)hept-2-enoate]	< 1	250 to 1500	< 1	–
COC(=O)/C=C/CC[C@H](NC(=O)c1cc(Br)cs1)C(=O)Nc1cccn(CC(=O)NC2C3CC4CC(C3)CC2C4)c1=O (stereo partly drawn) [III-18, (S,E)-methyl 6-(4-bromothiophene-2-carboxamido)-7-(1-(2-(2-adamantylamino)-2-oxoethyl)-2-oxo-1,2-dihydropyridin-3-ylamino)-7-oxohept-2-enoate]	3 to 5	< 25	< 1	–
COC(=O)/C=C/CC[C@H](NC(=O)c1ccnn1C)C(=O)Nc1cccn(CC(=O)NC23CC4CC(C)(CC(C)(C4)C2)C3)c1=O [III-113, (S,E)-methyl 7-(1-(2-(3,5-dimethyladamantane-1-amino)-2-oxoethyl)-2-oxo-1,2-dihydropyridin-3-ylamino)-6-(1-methyl-1H-pyrazole-5-carboxamido)-7-oxohept-2-enoate]	1 to 3	< 25	< 1	–
CC(C)OC(=O)/C=C/CC[C@H](NC(=O)c1cn[nH]n1)C(=O)Nc1cccn(CC(=O)NC23CCC(C2)C3)c1=O [III-158, (S,E)-isopropyl 7-(1-(2-(bicyclo[2.1.1]hexan-1-ylamino)-2-oxoethyl)-2-oxo-1,2-dihydropyridin-3-ylamino)-7-oxo-6-(2H-1,2,3-triazole-4-carboxamido)hept-2-enoate]	< 1	250 to 1500	< 1	–
